Test results as given in the supplement of paper PMC10307832.

Key:
Assay in all cases: relative viability (nuclei count vs DMSO), 5 days (fraction); higher = more cells survive
[1] = compound: C[C@H]([C@@H](C(=O)N)NC(=O)[C@@H]1CSSC[C@@H](C(=O)N[C@H](C(=O)N[C@@H](C(=O)N[C@H](C(=O)N1)CCCCN)CC2=CNC3=CC=CC=C32)CC4=CC=C(C=C4)O)NC(=O)[C@@H](CC5=CC=CC=C5)N)O [CAP-232] + CC(=O)Nc1cccc(-n2c(=O)n(C3CC3)c(=O)c3c(Nc4ccc(I)cc4F)n(C)c(=O)c(C)c32)c1 [Trametinib] (partner 0.02 µM)
In short: (§1)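 A single step with final 0.05% Triton X-100, 1% formaldehyde and 1 ug/ml Hoechst fixed the cells and stained nuclei 5 days after treatment. Lung cancer cell lines in 1536-well plates had been treated by pin tool the day after seeding with one drug alone or a fixed anchor-drug dose plus five library-drug doses (not always all listed) in √10 steps, and nuclei were counted on 4× images. Relative viability is the ratio of nuclei in treated wells to nuclei in vehicle wells, taken as the median of duplicate plates.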

[2] = compound: C[C@H]([C@@H](C(=O)N)NC(=O)[C@@H]1CSSC[C@@H](C(=O)N[C@H](C(=O)N[C@@H](C(=O)N[C@H](C(=O)N1)CCCCN)CC2=CNC3=CC=CC=C32)CC4=CC=C(C=C4)O)NC(=O)[C@@H](CC5=CC=CC=C5)N)O [CAP-232] + CCNC(=O)c1noc(-c2cc(C(C)C)c(O)cc2O)c1-c1ccc(CN2CCOCC2)cc1 [Luminespib] (partner 0.01 µM)
In short: as §1

[3] = compound: C[C@H]([C@@H](C(=O)N)NC(=O)[C@@H]1CSSC[C@@H](C(=O)N[C@H](C(=O)N[C@@H](C(=O)N[C@H](C(=O)N1)CCCCN)CC2=CNC3=CC=CC=C32)CC4=CC=C(C=C4)O)NC(=O)[C@@H](CC5=CC=CC=C5)N)O [CAP-232] + CC(=O)c1c(C)c2cnc(Nc3ccc(N4CCNCC4)cn3)nc2n(C2CCCC2)c1=O [Palbociclib] (partner 0.5 µM)
In short: as §1

[4] = compound: C[C@H]([C@@H](C(=O)N)NC(=O)[C@@H]1CSSC[C@@H](C(=O)N[C@H](C(=O)N[C@@H](C(=O)N[C@H](C(=O)N1)CCCCN)CC2=CNC3=CC=CC=C32)CC4=CC=C(C=C4)O)NC(=O)[C@@H](CC5=CC=CC=C5)N)O [CAP-232] + CS(=O)(=O)CCNCc1ccc(-c2ccc3ncnc(Nc4ccc(OCc5cccc(F)c5)c(Cl)c4)c3c2)o1 [Lapatinib] (partner 2 µM)
In short: as §1

[5] = compound: C[C@H]([C@@H](C(=O)N)NC(=O)[C@@H]1CSSC[C@@H](C(=O)N[C@H](C(=O)N[C@@H](C(=O)N[C@H](C(=O)N1)CCCCN)CC2=CNC3=CC=CC=C32)CC4=CC=C(C=C4)O)NC(=O)[C@@H](CC5=CC=CC=C5)N)O [CAP-232] + CS(=O)(=O)N1CCN(Cc2cc3nc(-c4cccc5[nH]ncc45)nc(N4CCOCC4)c3s2)CC1 [Pictilisib] (partner 1 µM)
In short: as §1

Cell Line	relative viability ([1]; first compound 0.4 µM)	relative viability ([1]; first compound 1.265 µM)	relative viability ([1]; first compound 4 µM)	relative viability ([1]; first compound 12.65 µM)	relative viability ([2]; first compound 0.4 µM)	relative viability ([2]; first compound 1.265 µM)	relative viability ([2]; first compound 4 µM)	relative viability ([2]; first compound 12.65 µM)	relative viability ([3]; first compound 0.4 µM)	relative viability ([3]; first compound 1.265 µM)	relative viability ([3]; first compound 4 µM)	relative viability ([3]; first compound 12.65 µM)	relative viability ([4]; first compound 0.4 µM)	relative viability ([4]; first compound 1.265 µM)	relative viability ([4]; first compound 4 µM)	relative viability ([4]; first compound 12.65 µM)	relative viability ([5]; first compound 0.4 µM)	relative viability ([5]; first compound 1.265 µM)	relative viability ([5]; first compound 4 µM)	relative viability ([5]; first compound 12.65 µM)
201T	0.707	0.698	0.729	0.677	1.08	1.04	0.967	1.07	0.357	0.354	0.317	0.376	1.11	0.98	1.04	1.04	0.765	0.657	0.678	0.713
A549													1.1	1	1.05	0.42	0.591	0.472	0.563	0.203
A-427	0.615	0.716	0.795	0.684	0.697	0.968	0.87	1.03	0.528	0.554	0.508	0.467	1.09	1.04	1.17	1.09	0.508	0.654	0.842	0.853
ABC-1					0.554	0.587	0.686	0.377	0.641		0.691	0.513	1	1.12	0.887	1.26	0.616	0.878	0.745	0.411
BEN	1.15	0.987	0.997	0.914	0.501	0.234	0.184	0.371	0.516	0.46	0.456	0.448	0.776	0.661	0.583	0.575	0.569	0.55	0.601	0.498
CAL-12T	0.233	0.303	0.394	0.162	0.132	0.184	0.242	0.155	0.422	0.552	0.376	0.179	0.528	0.612	0.644	0.736	0.383	0.381	0.435	0.322
COR-L23	0.455	0.597	0.604	0.281	0.475	0.776	0.81	0.506	0.338	0.29	0.304	0.255	1.3	0.961	1.08	0.845	0.653	0.734	0.784	0.579
COR-L 105	0.371	0.414	0.395	0.377	0.768	0.652	0.737	0.494	0.395	0.401	0.384	0.387	0.333	0.376	0.354	0.33	0.346	0.43	0.37	0.31
ChaGo-K-1	0.867	0.892	1.01	0.93	0.574	0.638	0.495	0.545	0.964	0.932	1.01	0.932					1	0.51	0.703	0.256
EKVX	0.583	0.342	0.268	0.331	0.876	0.719	0.871	0.645	0.387	0.339	0.262	0.262	0.211	0.203	0.191	0.171	0.395	0.458	0.421	0.372
EMC-BAC-2	0.757	0.864	0.859	0.415	1.32	1.19	1.21	1.05	0.507	0.512	0.491	0.427	0.951	0.914	0.928	0.917	0.511	0.51	0.534	0.48
EPLC-272H	0.261	0.258	0.281	0.28	0.256	0.198	0.219	0.157	0.342	0.292	0.297	0.296	1.25	0.86	1.04	0.971	0.284	0.281	0.325	0.287
H3255	0.608		0.543	0.436	0.805	0.825	1.05	1.01	0.314	0.32	0.329	0.282	0.317	0.226	0.219	0.0844	0.443	0.491	0.553	0.366
HARA	0.323	0.9	0.643	0.506	0.918	0.884	0.973	0.804	0.236	0.31	0.246	0.265	0.717	0.613	0.691	0.732	0.401	0.432	0.358	0.26
HCC-15	0.376	0.364	0.393	0.267	0.254	0.228	0.248	0.312	0.754	0.763	0.567	0.567	0.971	0.8	0.934	0.654	0.778	0.764	0.806	0.54
